Experimental data published in patent publication US10487056B2, “Small molecule androgen receptor inhibitors and methods of use thereof” (GEORGETOWN UNIVERSITY, priority 2015, dated 2019).

Legend:
Format in all cases: cell-based
[1] = biological target: T1, AR (Homo sapiens, UniProt P10275); experiment: VCaP-ARE-luc androgen-response element luciferase reporter assay; settings: DHT 1 nM, 24 hours
T1 construct: Androgen-dependent VCaP cells were made to stably express an androgen-response element luciferase reporter (VCaP-ARE-luc); host or cells: VCaP / VCaP-ARE-luc
T1 sequence (P10275 1-920): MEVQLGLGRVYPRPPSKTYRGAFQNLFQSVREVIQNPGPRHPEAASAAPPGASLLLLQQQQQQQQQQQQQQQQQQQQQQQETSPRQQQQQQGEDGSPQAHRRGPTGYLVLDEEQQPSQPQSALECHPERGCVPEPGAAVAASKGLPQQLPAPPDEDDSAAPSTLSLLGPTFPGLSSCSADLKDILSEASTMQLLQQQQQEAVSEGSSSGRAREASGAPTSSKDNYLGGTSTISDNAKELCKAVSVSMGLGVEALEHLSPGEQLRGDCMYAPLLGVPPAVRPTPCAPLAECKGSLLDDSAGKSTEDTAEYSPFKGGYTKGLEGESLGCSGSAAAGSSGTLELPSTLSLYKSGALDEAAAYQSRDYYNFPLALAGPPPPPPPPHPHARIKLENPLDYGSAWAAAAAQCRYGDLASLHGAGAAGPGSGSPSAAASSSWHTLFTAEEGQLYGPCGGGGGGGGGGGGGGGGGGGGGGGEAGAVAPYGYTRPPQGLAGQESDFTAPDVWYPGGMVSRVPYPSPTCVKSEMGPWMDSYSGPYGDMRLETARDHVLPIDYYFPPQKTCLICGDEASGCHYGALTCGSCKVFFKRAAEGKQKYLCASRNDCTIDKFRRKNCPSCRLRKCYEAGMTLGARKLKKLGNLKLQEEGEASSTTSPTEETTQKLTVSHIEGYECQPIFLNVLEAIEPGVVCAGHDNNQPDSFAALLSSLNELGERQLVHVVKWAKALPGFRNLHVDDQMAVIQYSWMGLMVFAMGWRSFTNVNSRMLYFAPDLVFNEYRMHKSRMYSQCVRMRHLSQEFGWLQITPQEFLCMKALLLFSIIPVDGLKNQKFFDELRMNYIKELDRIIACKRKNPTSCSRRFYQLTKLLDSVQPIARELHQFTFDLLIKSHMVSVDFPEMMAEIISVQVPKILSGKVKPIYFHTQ
Experimental: VCaP and CWR22Rv1 (referred to as 22Rv1) cells were transduced with ARE-luciferase Cignal Lenti Pathway Reporter (Qiagen; Valencia, Calif.) and cultured as described above in the presence of 1 μg/mL puromycin. Following antibiotic selection, cells stably expressing ARE-luciferase were isolated, cloned and cultured to generate a stable ARE-reporter cell lines.
Androgen-dependent VCaP cells were made to stably express an androgen-response element luciferase reporter (VCaP-ARE-luc).

[2] = tested on: VCaP-MDVR cells; experiment: Caspase-Glo 3/7 activity assay, VCaP-MDVR cells; settings: SH-I-125 1 μM, 3 days
Experimental: Caspase 3/7 activity was measured using Caspase-Glo 3/7 substrates. Data represent mean of three independent experiments with quadruplicate samples; bars, SEM.
The emergence of resistance to clinical anti-androgens is an ongoing problem in the treatment of castration-resistant prostate cancer.

[3] = tested on: 22Rv1 cells; experiment: MTT cell viability assay, 22Rv1 cells; settings: 3 days
Experimental: Cells were treated in the manner indicated below for the specified period of time. MTT assay was performed as described in Amin et al., Mol. Cancer Ther., 13:341-52 (2014).
To determine the effects of SH-I-125 on prostate cancer cell growth, 22Rv1 cells were treated with SH-I-125 and cell viability was measured after a period of 3 days. […]. In comparison, non-tumorigenic primary prostate epithelial cells (PrEC) retained 80% viability in the presence of a similar range of doses of SH-I-125, showing that tumorigenic cells are more susceptible to the growth inhibitory properties of SH-I-125 compared to non-tumorigenic cells (FIG. 8B). […] Staurosporine was used as a positive control for cell death induction in live and dead assays (FIG. 9C).

[4] = tested on: AR and AR-V7; experiment: Immunofluorescence staining of AR and AR-V7 in 22Rv1 cells; settings: SH-I-125 1 μM, 24 hours
Experimental: […]. Androgen receptor (AR) and PSA expression levels were assessed.
Immunofluorescence staining was performed as described in Amin et al., Mol. Cancer Ther., 13:341-52 (2014).
22Rv1 cells represent a commonly observed castration-resistant phenotype, including androgen-independent growth and the expression of AR splice variants, such as AR-V7. […]. […] […].

[5] = tested on: VCaP cells; experiment: Caspase-Glo 3/7 activity assay, VCaP cells; settings: 3 days
Experimental: Caspase 3/7 activity was measured using Caspase-Glo 3/7 substrates. Data represent mean of three independent experiments with quadruplicate samples; bars, SEM. ***, p value <0.001 determined by ANOVA.

[6] = tested on: 22Rv1 cells; experiment: Cleaved caspase-3 and cleaved PARP by Western blot and immunofluorescence, 22Rv1 cells; settings: SH-I-125 1 μM, three days
Experimental: 22Rv1 cells were treated with SH-I-125 (1 μM) for one, two, or three days, and caspase 3/7 activity was measured using Caspase-Glo 3/7 substrates. […] Data represent mean of three independent experiments with quadruplicate samples; bars, SEM. ***, p value <0.001 determined by ANOVA.
The presence of cleaved caspase-3 and cleaved PARP were determined. The cells were counterstained with 4′,6-diamidino-2-phenylindole (DAPI).
Western blotting was performed as described in Amin et al., Mol. Cancer Ther., 13:341-52 (2014). The following antibodies were used: Androgen receptor (N-20; Santa Cruz Biotechnology; Dallas, Tex.), PSA (A0562; Dako; Carpinteria, Calif.), β-actin (SC-47778; Santa Cruz Biotechnology), AR-V7 (AG10008; Precision Antibody; Columbia, Md.), cleaved PARP (9541; Cell Signaling Technologies, Danvers, Mass.), and cleaved caspase-3 (9664; Cell Signaling Technologies, Danvers, Mass.).
It was determined whether caspase activity and apoptosis were induced in 22Rv1 cells upon SH-I-125 treatment. […] Staurosporine was used as a positive control for apoptosis induction (FIG. 10B).

[7] = tested on: VCaP-MDVR cells; experiment: Cell viability (MTT), VCaP-MDVR cells; settings: MDV3100, ARN-509 10 μM, SH-I-125 range, 3 days
Experimental: Cell viability was measured using the MTT assay.

[8] = tested on: c-myc promoter; experiment: c-myc promoter-luciferase reporter in 22Rv1 cells; settings: 1 μM, 24 hours
Experimental: 22Rv1 cells were transfected with c-myc promoter-luciferase reporter construct and Renilla luciferase plasmids (pRL-TK-Luc) and treated with 1 μM of SH-I-125 for 24 hours. Promoter activity was determined after normalization with Renilla luciferase activity. Columns, mean of three independent experiments with quadruplicate samples; bars, SEM.

For `COc1ccc2c(c1)[nH]c1c(C)c(OS(=O)(=O)c3cccc4ccccc34)ccc12` [SH-I-125, 7-methoxy-1-methyl-9H-carbazol-2-yl naphthalene-1-sulfonate], the “potency relative to mahanine on AR signaling (ARE-luc)” value [1] was “more potent than mahanine”, the “inhibition of AR transactivation (luciferase activity)” value ([1]; range of doses) was “comparable decline in luciferase activity” and the “caspase 3/7 activation” value [2] was “inducing caspase activation”. For the same molecule, the “potency relative to natural-derived and synthetically-derived mahanine in preventing growth” value ([3]; MTT) was “ten-fold”, the viability at 1 µM ([3]; Homo sapiens, 72 h, dose of 1 μM, read-out: cell viability, of control) was 50% and the “nuclear localization of AR and AR-V7” value [4] was “decreased the nuclear localization of AR and AR-V7”. The “caspase 3/7 activity” value [5] was “induced caspase activity”, the “cleaved caspase-3 and cleavage of PARP” value [6] was “presence of cleaved caspase-3 and accompanied by the cleavage of PARP” and the “cell growth / viability” value [7] was “effective in preventing the growth”. For the same molecule, the c-myc promoter-luciferase activity [8] was “unaffected”.
